Data published in US9486506B2 (Novo Nordisk A/S, priority 2011, dated 2016).
Numbered stars: 1 amine (or outer) side, 2 acyl side, 3 side chain; on linkers, the order of the positions; unused ones are H or OH. Side chains are listed from the residue outwards. Peptide text beside a SMILES is read from it. * marks the point of attachment. C18 diacid = O=C(O)CCCCCCCCCCCCCCCCC(=O)*; C16 diacid = O=C(O)CCCCCCCCCCCCCCC(=O)*; γGlu = O=C(O)[C@H](CCC(=O)[*:2])N[*:1]; AEEA = NCCOCCOCC(=O)O

Molecular target: T1, glucagon receptor (Homo sapiens, UniProt P47871)
T1 construct: expressed in transfected cells
Experiment: Assay (I) Glucagon activity (cAMP biosensor, FLIPR)
Assay type: cell-based

T1 sequence (P47871 26-477): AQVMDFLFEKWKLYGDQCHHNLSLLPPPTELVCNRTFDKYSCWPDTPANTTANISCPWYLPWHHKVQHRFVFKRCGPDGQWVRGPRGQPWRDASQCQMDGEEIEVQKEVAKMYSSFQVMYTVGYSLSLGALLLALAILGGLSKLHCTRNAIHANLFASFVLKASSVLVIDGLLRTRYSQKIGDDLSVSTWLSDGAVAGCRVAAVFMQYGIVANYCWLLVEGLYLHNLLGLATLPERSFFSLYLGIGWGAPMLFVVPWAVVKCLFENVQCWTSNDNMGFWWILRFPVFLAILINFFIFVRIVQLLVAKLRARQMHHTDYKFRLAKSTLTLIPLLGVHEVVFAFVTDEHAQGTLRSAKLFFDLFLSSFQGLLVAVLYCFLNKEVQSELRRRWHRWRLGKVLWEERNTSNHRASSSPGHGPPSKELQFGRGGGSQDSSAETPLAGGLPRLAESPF

In order of falling EC50:
1. CC(C)C[C@H](NC(=O)[C@H](Cc1ccc(O)cc1)NC(=O)[C@H](CCCNC(=N)N)NC(=O)[C@H](CO)NC(=O)[C@@H](NC(=O)[C@H](CC(=O)O)NC(=O)[C@H](CO)NC(=O)[C@@H](NC(=O)[C@H](Cc1ccccc1)NC(=O)[C@@H](NC(=O)CNC(=O)[C@H](CCC(N)=O)NC(=O)[C@H](CO)NC(=O)[C@@H](N)Cc1c[nH]cn1)[C@@H](C)O)[C@@H](C)O)C(C)C)C(=O)N[C@@H](CCC(=O)O)C(=O)N[C@@H](CO)C(=O)N[C@@H](CCCNC(=N)N)C(=O)N[C@@H](CCCNC(=N)N)C(=O)N[C@@H](C)C(=O)N[C@@H](CCC(N)=O)C(=O)N[C@@H](CCC(=O)O)C(=O)N[C@@H](Cc1ccccc1)C(=O)N[C@H](C(=O)N[C@@H](CCCCNC(=O)CC[C@H](NC(=O)CC[C@H](NC(=O)COCCOCCNC(=O)COCCOCCNC(=O)CC[C@H](NC(=O)CCCCCCCCCCCCCCCCC(=O)O)C(=O)O)C(=O)O)C(=O)O)C(=O)N[C@@H](Cc1c[nH]c2ccccc12)C(=O)N[C@@H](CC(C)C)C(=O)N[C@@H](CCC(=O)O)C(=O)N[C@@H](CO)C(=O)N[C@H](C(=O)O)[C@@H](C)O)C(C)C [Example 54, N^ε24-[(4S)-4-carboxy-4-[[(4S)-4-carboxy-4-[[2-[2-[2-[[2-[2-[2-[[(4S)-4-carboxy-4-(17-carboxyheptadecanoylamino)butanoyl]amino]ethoxy]ethoxy]acetyl]amino]ethoxy]ethoxy]acetyl]amino]butanoyl]amino]butanoyl]-[Val10,Arg12,Glu15,Glu21,Lys24,Glu27,Ser28]-Glucagon] (H-HSQGTFTSDVSRYLESRRAQEFVK([γGlu-γGlu-AEEA-AEEA-γGlu-C18 diacid])WLEST-OH)  1.63 nM
2. CC[C@H](C)[C@H](NC(=O)[C@H](CC(N)=O)NC(=O)[C@H](CC(C)C)NC(=O)[C@H](CC(C)C)NC(=O)[C@H](Cc1c[nH]c2ccccc12)NC(=O)[C@H](CCCCNC(=O)CC[C@H](NC(=O)COCCOCCNC(=O)COCCOCCNC(=O)CC[C@H](NC(=O)CCCCCCCCCCCCCCCCC(=O)O)C(=O)O)C(=O)O)NC(=O)[C@@H](NC(=O)[C@H](Cc1ccccc1)NC(=O)[C@H](CC(=O)O)NC(=O)[C@H](CCC(N)=O)NC(=O)[C@H](C)NC(=O)[C@H](CCCNC(=N)N)NC(=O)[C@H](CCCNC(=N)N)NC(=O)[C@@H](NC(=O)[C@H](CC(=O)O)NC(=O)[C@H](CC(C)C)NC(=O)[C@H](Cc1ccc(O)cc1)NC(=O)[C@H](CCCCN)NC(=O)[C@H](CO)NC(=O)[C@H](Cc1ccc(O)cc1)NC(=O)[C@H](CC(=O)O)NC(=O)[C@H](CO)NC(=O)[C@@H](NC(=O)[C@H](Cc1ccccc1)NC(=O)[C@@H](NC(=O)CNC(=O)[C@H](CCC(N)=O)NC(=O)[C@H](CO)NC(=O)[C@@H](N)Cc1c[nH]cn1)[C@@H](C)O)[C@@H](C)O)[C@@H](C)O)C(C)C)C(=O)O [Example 35, N^ε24-[(4S)-4-carboxy-4-[[2-[2-[2-[[2-[2-[2-[[(4S)-4-carboxy-4-(17-carboxyheptadecanoylamino)butanoyl]amino]ethoxy]ethoxy]acetyl]amino]ethoxy]ethoxy]acetyl]amino]butanoyl]-[Thr16,Lys24,Leu27,Ile29]-Glucagon]  0.413 nM
3. CC(C)C[C@H](NC(=O)[C@H](CC(=O)O)NC(=O)[C@H](CC(C)C)NC(=O)[C@H](Cc1ccc(O)cc1)NC(=O)[C@H](CCCNC(=N)N)NC(=O)[C@H](CO)NC(=O)[C@H](Cc1ccc(O)cc1)NC(=O)[C@H](CC(=O)O)NC(=O)[C@H](CO)NC(=O)[C@@H](NC(=O)[C@H](Cc1ccccc1)NC(=O)[C@@H](NC(=O)CNC(=O)[C@H](CCC(N)=O)NC(=O)[C@H](CO)NC(=O)[C@@H](N)Cc1c[nH]cn1)[C@@H](C)O)[C@@H](C)O)C(=O)N[C@@H](CCCNC(=N)N)C(=O)N[C@@H](CCCNC(=N)N)C(=O)N[C@@H](C)C(=O)N[C@@H](CCC(N)=O)C(=O)N[C@@H](CCC(=O)O)C(=O)N[C@@H](Cc1ccccc1)C(=O)N[C@H](C(=O)N[C@@H](CCCCNC(=O)CC[C@H](NC(=O)CC[C@H](NC(=O)COCCOCCNC(=O)COCCOCCNC(=O)CC[C@H](NC(=O)CCCCCCCCCCCCCCCCC(=O)O)C(=O)O)C(=O)O)C(=O)O)C(=O)N[C@@H](Cc1c[nH]c2ccccc12)C(=O)N[C@@H](CC(C)C)C(=O)N[C@@H](CC(C)C)C(=O)N[C@@H](CO)C(=O)N[C@H](C(=O)O)[C@@H](C)O)C(C)C [Example 46, N^ε24-[(4S)-4-carboxy-4-[[(4S)-4-carboxy-4-[[2-[2-[2-[[2-[2-[2-[[(4S)-4-carboxy-4-(17-carboxyheptadecanoylamino)butanoyl]amino]ethoxy]ethoxy]acetyl]amino]ethoxy]ethoxy]acetyl]amino]butanoyl]amino]butanoyl]-[Arg12,Leu16,Glu21,Lys24,Leu27,Ser28]-Glucagon] (H-HSQGTFTSDYSRYLDLRRAQEFVK([γGlu-γGlu-AEEA-AEEA-γGlu-C18 diacid])WLLST-OH)  0.095 nM
4. CC(C)C[C@H](NC(=O)[C@H](Cc1c[nH]c2ccccc12)NC(=O)[C@H](CCCCNC(=O)CC[C@H](NC(=O)CC[C@H](NC(=O)COCCOCCNC(=O)COCCOCCNC(=O)CC[C@H](NC(=O)CCCCCCCCCCCCCCC(=O)O)C(=O)O)C(=O)O)C(=O)O)NC(=O)[C@@H](NC(=O)[C@H](Cc1ccccc1)NC(=O)[C@H](CC(=O)O)NC(=O)[C@H](CCC(N)=O)NC(=O)[C@H](C)NC(=O)[C@H](CCCNC(=N)N)NC(=O)[C@H](CCCNC(=N)N)NC(=O)[C@@H](NC(=O)[C@H](CC(=O)O)NC(=O)[C@H](CC(C)C)NC(=O)[C@H](Cc1ccc(O)cc1)NC(=O)[C@H](CCCNC(=N)N)NC(=O)[C@H](CO)NC(=O)[C@H](Cc1ccc(O)cc1)NC(=O)[C@H](CC(=O)O)NC(=O)[C@H](CO)NC(=O)[C@@H](NC(=O)[C@H](Cc1ccccc1)NC(=O)[C@@H](NC(=O)CNC(=O)[C@H](CCC(N)=O)NC(=O)[C@H](CO)NC(=O)[C@@H](N)Cc1c[nH]cn1)[C@@H](C)O)[C@@H](C)O)[C@@H](C)O)C(C)C)C(=O)N[C@@H](CC(C)C)C(=O)N[C@@H](CO)C(=O)N[C@H](C(=O)O)[C@@H](C)O [Example 82, N^ε24-[(4S)-4-carboxy-4-[[(4S)-4-carboxy-4-[[2-[2-[2-[[2-[2-[2-[[(4S)-4-carboxy-4-(15-carboxypentadecanoylamino)butanoyl]amino]ethoxy]ethoxy]acetyl]amino]ethoxy]ethoxy]acetyl]amino]butanoyl]amino]butanoyl]-[Arg12,Thr16,Lys24,Leu27,Ser28]-Glucagon] (H-HSQGTFTSDYSRYLDTRRAQDFVK([γGlu-γGlu-AEEA-AEEA-γGlu-C16 diacid])WLLST-OH)  0.025 nM
